According to paper PMC9927415, “Tyrosine Kinase Inhibitors Display Potent Activity against Cryptosporidium parvum” (Microbiology Spectrum, 2022):

Legend:
Assay in all cases: KINOMEscan competitive binding
[1] = molecular target: T1, PTK6 (Homo sapiens, UniProt Q13882); settings: n=1, read-out: Percent inhibition, PTK6
T1 construct: purchased DiscoverX (KINOMEscan)

[2] = molecular target: T2, PHKG1 (Homo sapiens, UniProt Q16816); settings: n=1, read-out: Percent inhibition, PHKG1
T2 construct: purchased DiscoverX (KINOMEscan)

[3] = molecular target: T3, ULK3(mouse) (Mus musculus, UniProt Q3U3Q1); settings: n=1, read-out: Percent inhibition, ULK3(mouse)
T3 construct: purchased DiscoverX (KINOMEscan)
T3 sequence (Q3U3Q1 1-472): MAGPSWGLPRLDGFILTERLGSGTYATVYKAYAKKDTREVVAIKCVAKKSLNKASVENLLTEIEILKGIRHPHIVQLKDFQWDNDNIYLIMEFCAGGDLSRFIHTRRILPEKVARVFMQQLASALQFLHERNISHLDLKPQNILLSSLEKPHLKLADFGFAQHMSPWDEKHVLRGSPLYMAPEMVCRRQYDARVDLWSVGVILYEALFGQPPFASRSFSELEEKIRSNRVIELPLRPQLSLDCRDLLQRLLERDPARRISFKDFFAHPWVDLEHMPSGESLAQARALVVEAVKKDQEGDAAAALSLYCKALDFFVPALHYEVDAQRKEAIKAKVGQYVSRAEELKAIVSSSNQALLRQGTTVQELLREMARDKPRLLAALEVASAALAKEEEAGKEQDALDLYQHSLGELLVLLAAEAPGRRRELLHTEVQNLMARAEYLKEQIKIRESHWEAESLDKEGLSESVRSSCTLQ

[4] = molecular target: T4, SRC (Homo sapiens, UniProt P12931); settings: n=1, read-out: Percent inhibition, SRC
T4 construct: purchased DiscoverX (KINOMEscan)

[5] = molecular target: T5, RIPK2 (Homo sapiens, UniProt O43353); settings: n=1, read-out: Percent inhibition, RIPK2
T5 construct: purchased DiscoverX (KINOMEscan)

[6] = molecular target: T6, PKMYT1 (Homo sapiens, UniProt Q99640); settings: n=1, read-out: Percent inhibition, PKMYT1
T6 construct: purchased DiscoverX (KINOMEscan)
T6 sequence (Q99640 1-499): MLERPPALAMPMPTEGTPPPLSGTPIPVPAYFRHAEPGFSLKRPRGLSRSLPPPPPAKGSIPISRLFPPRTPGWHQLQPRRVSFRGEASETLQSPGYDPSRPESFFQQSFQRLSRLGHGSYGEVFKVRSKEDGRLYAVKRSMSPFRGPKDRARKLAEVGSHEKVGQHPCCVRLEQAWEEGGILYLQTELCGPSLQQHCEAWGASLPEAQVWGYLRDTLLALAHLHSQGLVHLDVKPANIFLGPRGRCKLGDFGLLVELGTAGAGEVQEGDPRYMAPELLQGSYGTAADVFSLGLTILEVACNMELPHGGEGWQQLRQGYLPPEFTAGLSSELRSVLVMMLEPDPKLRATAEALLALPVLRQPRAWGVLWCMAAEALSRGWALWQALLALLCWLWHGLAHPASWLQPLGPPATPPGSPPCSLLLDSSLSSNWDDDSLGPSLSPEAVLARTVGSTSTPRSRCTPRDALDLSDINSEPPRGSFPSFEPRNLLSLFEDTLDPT

[7] = molecular target: T7, PIM1 (Homo sapiens, UniProt P11309); settings: n=1, read-out: Percent inhibition, PIM1
T7 construct: purchased DiscoverX (KINOMEscan)

[8] = molecular target: T8, YANK2 (Homo sapiens, UniProt Q9NY57); settings: n=1, read-out: Percent inhibition, YANK2
T8 construct: purchased DiscoverX (KINOMEscan)

[9] = molecular target: T9, PIM2 (Homo sapiens, UniProt Q9P1W9); settings: n=1, read-out: Percent inhibition, PIM2
T9 construct: purchased DiscoverX (KINOMEscan)

[10] = molecular target: T10, PAK6 (Homo sapiens, UniProt Q9NQU5); settings: n=1, read-out: Percent inhibition, PAK6
T10 construct: purchased DiscoverX (KINOMEscan)

[11] = molecular target: T11, PAK7/PAK5 (Homo sapiens, UniProt Q9P286); settings: n=1, read-out: Percent inhibition, PAK7/PAK5
T11 construct: purchased DiscoverX (KINOMEscan)

[12] = molecular target: T12, PHKG2 (Homo sapiens, UniProt P15735); settings: n=1, read-out: Percent inhibition, PHKG2
T12 construct: purchased DiscoverX (KINOMEscan)
T12 sequence (P15735 1-406): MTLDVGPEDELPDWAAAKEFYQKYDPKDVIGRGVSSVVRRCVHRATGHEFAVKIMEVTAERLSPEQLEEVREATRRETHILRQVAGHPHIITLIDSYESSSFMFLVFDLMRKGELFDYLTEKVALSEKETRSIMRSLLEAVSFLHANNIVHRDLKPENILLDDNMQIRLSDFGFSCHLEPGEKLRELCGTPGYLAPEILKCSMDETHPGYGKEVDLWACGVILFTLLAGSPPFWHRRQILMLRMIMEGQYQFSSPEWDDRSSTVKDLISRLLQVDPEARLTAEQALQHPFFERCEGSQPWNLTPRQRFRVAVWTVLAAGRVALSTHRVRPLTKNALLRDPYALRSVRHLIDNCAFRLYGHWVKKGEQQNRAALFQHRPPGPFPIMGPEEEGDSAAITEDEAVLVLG

[13] = molecular target: T13, PAK2 (Homo sapiens, UniProt Q13177); settings: n=1, read-out: Percent inhibition, PAK2
T13 construct: purchased DiscoverX (KINOMEscan)

[14] = molecular target: T14, PLK3 (Homo sapiens, UniProt Q9H4B4); settings: n=1, read-out: Percent inhibition, PLK3
T14 construct: purchased DiscoverX (KINOMEscan)

[15] = molecular target: T15, TNK2 (Homo sapiens, UniProt Q07912); settings: n=1, read-out: Percent inhibition, TNK2
T15 construct: purchased DiscoverX (KINOMEscan)

[16] = molecular target: T16, RPS6KA3(Kin.Dom.1) (Homo sapiens, UniProt P51812); settings: n=1, read-out: Percent inhibition, RPS6KA3(Kin.Dom.1)
T16 construct: RPS6KA3(Kin.Dom.1); purchased DiscoverX (KINOMEscan)

[17] = molecular target: T17, PAK4 (Homo sapiens, UniProt O96013); settings: n=1, read-out: Percent inhibition, PAK4
T17 construct: purchased DiscoverX (KINOMEscan)

SMILES | inhibition at 10 µM [1] [%] | inhibition at 10 µM [2] [%] | inhibition at 10 µM [3] [%] | inhibition at 10 µM [4] [%] | inhibition at 10 µM [5] [%] | inhibition at 10 µM [6] [%] | inhibition at 10 µM [7] [%] | inhibition at 10 µM [8] [%] | inhibition at 10 µM [9] [%] | inhibition at 10 µM [10] [%] | inhibition at 10 µM [11] [%] | inhibition at 10 µM [12] [%] | inhibition at 10 µM [13] [%] | inhibition at 10 µM [14] [%] | inhibition at 10 µM [15] [%] | inhibition at 10 µM [16] [%] | inhibition at 10 µM [17] [%]
CN1CCN(c2ccc(Nc3nccc(-c4cnn5ncccc45)n3)cc2C#N)CC1 [Compound 1] | 77 | 88.3 | 97.1 | 99.2 | 90.6 | 0 | 99.8 | 0 | 99.7 | 92.5 | 99.2 | 100 | 95.4 | 0 | 73.2 | 86 | 95.7
COc1ccc(Nc2nccc(-c3cnn4ncccc34)n2)cc1 [Compound 2] | 0 | 0 | 92.5 | 85 | 0 | 0 | 0 | 0 | 81.1 | 82 | 72.8 | 97.1 | 0 | 0 | 78.1 | 0 | 0
Cc1ccc(O)cc1Nc1ccnc(Nc2cccc(C(N)=O)c2)n1 [Compound 3] | 100 | 0 | 91.5 | 100 | 100 | 97.9 | 0 | 0 | 0 | 0 | 67.6 | 0 | 93.4 | 79 | 98.8 | 0 | 0
Cc1ccc(O)cc1N(C)c1ccnc(Nc2cccc(S(N)(=O)=O)c2)n1 [Compound 4] | 100 | 0 | 98.8 | 100 | 100 | 100 | 0 | 94.5 | 0 | 94.3 | 98.5 | 0 | 100 | 0 | 99.8 | 0 | 0
Fc1cccc(COc2ccc(Nc3ncnc4c3CN(CCN3CCOCC3)CC4)cc2Cl)c1 [Compound 6] | 0 | 0 | 0 | 0 | 0 | 0 | 0 | 0 | 0 | 0 | 0 | 0 | 97.6 | 0 | 0 | 0 | 0
COc1cc(Nc2nccc(-c3sc(N)nc3-c3cccc(NC(=O)c4c(F)cccc4F)c3)n2)cc(OC)c1OC [Compound 7] | 100 | 0 | 100 | 100 | 100 | 0 | 0 | 93 | 0 | 65 | 89.4 | 0 | 90 | 99.8 | 100 | 99.8 | 0
C[C@@H](Oc1cc(-c2cnc3ccccn23)sc1C(N)=O)c1ccccc1Cl [Compound 8] | 0 | 0 | 0 | 0 | 0 | 81.5 | 76.4 | 0 | 0 | 0 | 0 | 74.6 | 0 | 95.6 | 0 | 0 | 0
c1ccc(COc2cccc(-c3ccnc4[nH]ccc34)c2)cc1 [Compound 9] | 0 | 0 | 0 | 0 | 0 | 0 | 0 | 0 | 0 | 0 | 0 | 0 | 0 | 0 | 0 | 0 | 0
Clc1ccc(Nc2ncc(-c3ccccc3)s2)cc1 [Compound 10] | 0 | 0 | 0 | 0 | 0 | 0 | 0 | 0 | 0 | 0 | 0 | 0 | 0 | 0 | 0 | 0 | 0
Nc1ncc2c(-c3ccncc3)c[nH]c2n1 [Compound 11] | 0 | 0 | 91.7 | 93.3 | 0 | 0 | 0 | 0 | 0 | 0 | 77.1 | 0 | 0 | 0 | 0 | 0 | 0
